In paper PMC2248166, “Quantitative peptide binding motifs for 19 human and mouse MHC class I molecules derived using positional scanning combinatorial peptide libraries” (Immunome Research, 2008):

What was measured:
[1] = target: HLA A*3001 (Homo sapiens, UniProt P04439, D140H/D185E/E176W/F33S/G80R/H175R/K168Q/R138E/R41S); test: biochemical; format: binding
[2] = target: HLA A*3201 (Homo sapiens, UniProt P04439, A270S/D101S/D185E/E176V/E277Q/F133L/G103R/G107R/G231S/H175R/I121M/I218V/I322F/K168Q/L105A/L300P/L318F/M331R/P208A/P217A/Q94H/R106L/R138Q/S129P/T104I/T323A/T345S/V100E/V321M/V358M); test: biochemical; format: binding
[3] = target: HLA A*6802 (Homo sapiens, UniProt P04439, A269V/D140Y/D185E/E176V/E277Q/E87N/F33Y/G231S/I121R/I166T/I218V/L180W/L300P/L318F/N151K/P208A/P217A/Q86R/R138H/R169H/S129P/T345S/V36M); format: binding
[4] = target: HLA B*0702 (Homo sapiens, UniProt P01889); format: binding; settings: positional scanning combinatorial 9-mer library; normalized to 1.0 for the best residue at each position
[5] = target: HLA B*0801 (Homo sapiens, UniProt P01889, A93T/A95T/D138N/E176V/E187T/K202T/Q94N/R180D/S35A/V36M/Y33D/Y91F); test: biochemical; format: binding
[6] = target: HLA B*1501 (Homo sapiens, UniProt P01889, A329T/A93T/A95T/C349S/D201E/D98Y/E187L/E204Q/E69M/E70A/K202T/N87E/Q94N/R155S/R180W/S121R/S35A/S48A/V306I/V36M/Y140S/Y91S); test: biochemical; format: binding
[7] = target: HLA B*1503 (Homo sapiens, UniProt P01889, A329T/A93T/A95T/C349S/D201E/D98Y/E187L/E204Q/K202T/N87E/Q94N/R155S/R180L/S121R/S35A/V306I/V36M/Y140S/Y91S); test: biochemical; format: binding
[8] = target: HLA B*2705 (Homo sapiens, UniProt P01889, D138H/D201E/E176V/E204Q/G107R/H137Y/K202T/N104T/N87E/Q56L/Q94K/R106L/R155S/R180L/S101D/S121N/S48T/Y140D/Y33H/Y91C); format: binding; settings: positional scanning combinatorial 9-mer library; normalized to 1.0 for the best residue at each position
[9] = target: HLA B*3501 (Homo sapiens, UniProt P01889, A329T/A93T/A95T/C349S/D201E/D98Y/E176V/E187L/E204Q/E69T/I218V/K202T/L119I/Q94N/R155S/R180L/S121R/S35A/S48A/T118I/V127L/V306I/V36M/Y140S/Y91F); format: binding
[10] = target: HLA B*5101 (Homo sapiens, UniProt P01889, A329T/A93T/A95T/C349S/D138N/D201E/D98Y/E187L/E204Q/E69T/G107R/I218V/K202T/L105A/L119W/N104I/Q94N/R106L/R155S/R180L/S101N/S121T/S35A/S48A/V306I/V36M/Y195H/Y91F); format: binding
[11] = target: HLA B*5301 (Homo sapiens, UniProt P01889, A329T/A93T/A95T/C349S/D201E/D98Y/E176V/E187L/E204Q/E69T/G107R/I218V/K202T/L105A/L119I/N104I/Q94N/R106L/R155S/R180L/S101N/S121R/S35A/S48A/T118I/V127L/V306I/V36M/Y140S/Y91F); format: binding
[12] = target: HLA B*5401 (Homo sapiens, UniProt P01889, A329T/C349S/D138N/D201E/E176V/E187T/E204Q/E69G/I76V/K202T/L119W/R155S/R180L/S121T/S35A/S48A/V127L/V306I/V36M/Y140L); format: binding
[13] = target: HLA B*5801 (Homo sapiens, UniProt P01889, A329T/C349S/D201E/D98Y/E176V/E187L/E204Q/E69T/G107R/I218V/I90N/K202T/L105A/L119I/N104I/N87E/Q89R/Q94S/R106L/R155S/R180L/R86G/S101N/S121R/S35A/S48A/T118I/V127L/V306I/V36M/Y140S/Y91M); format: binding
[14] = target: HLA B*5802 (Homo sapiens, UniProt P01889, A329T/C349S/D201E/D98Y/E176V/E187L/E204Q/E69T/G107R/I218V/I90N/K202T/L105A/N104I/N87E/Q89R/Q94S/R106L/R155S/R180L/R86G/S101N/S121W/S35A/S48A/V127L/V306I/V36M/Y140S/Y91M); format: binding
[15] = target: H-2 D^b (Mus musculus, UniProt P01899); format: binding
[16] = target: H-2 D^d (Mus musculus, UniProt P01900); format: binding
[17] = target: H-2 K^k (Mus musculus, UniProt P04223); format: binding
[18] = target: HLA A*0201 (Homo sapiens, UniProt P04439, D140Y/D185E/D98H/E176V/E277Q/G131W/G231S/I119V/I121R/I166T/I218V/L300P/L318F/N151K/N90K/P208A/P217A/Q86G/Q94H/R138H/R169H/T345S); settings: positional scanning combinatorial 9-mer library; normalized to 1.0 for the best residue at each position

Sequence of H-2 D^b (P01887 21-119): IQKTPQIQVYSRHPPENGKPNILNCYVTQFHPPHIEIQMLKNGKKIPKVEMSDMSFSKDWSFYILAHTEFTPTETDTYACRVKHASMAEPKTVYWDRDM
Sequence of H-2 D^b (P01899 25-362): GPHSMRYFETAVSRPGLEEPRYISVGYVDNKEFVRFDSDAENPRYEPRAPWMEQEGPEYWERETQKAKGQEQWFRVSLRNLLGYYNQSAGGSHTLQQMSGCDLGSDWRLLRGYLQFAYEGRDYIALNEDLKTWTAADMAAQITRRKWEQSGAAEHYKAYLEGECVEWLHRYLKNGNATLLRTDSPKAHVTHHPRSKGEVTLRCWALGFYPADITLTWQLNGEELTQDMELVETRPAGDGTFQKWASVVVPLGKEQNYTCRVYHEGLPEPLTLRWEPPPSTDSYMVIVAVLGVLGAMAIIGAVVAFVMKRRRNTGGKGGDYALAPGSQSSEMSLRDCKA
Sequence of H-2 K^k (P01887 21-119): as the sequence (P01887 21-119) above
Sequence of H-2 K^k (P04223 22-369): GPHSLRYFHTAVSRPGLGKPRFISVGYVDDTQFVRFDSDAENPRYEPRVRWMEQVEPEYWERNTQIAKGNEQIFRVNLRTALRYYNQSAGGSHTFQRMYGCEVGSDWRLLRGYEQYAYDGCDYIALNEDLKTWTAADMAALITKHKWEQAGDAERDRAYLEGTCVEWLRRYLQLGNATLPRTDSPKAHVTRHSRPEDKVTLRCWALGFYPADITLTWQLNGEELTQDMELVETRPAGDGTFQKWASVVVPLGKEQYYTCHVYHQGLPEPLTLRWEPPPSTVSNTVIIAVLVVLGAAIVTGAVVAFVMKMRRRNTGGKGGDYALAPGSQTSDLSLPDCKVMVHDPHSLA
Sequence of H-2 D^d (P01900 whole entry, looked up): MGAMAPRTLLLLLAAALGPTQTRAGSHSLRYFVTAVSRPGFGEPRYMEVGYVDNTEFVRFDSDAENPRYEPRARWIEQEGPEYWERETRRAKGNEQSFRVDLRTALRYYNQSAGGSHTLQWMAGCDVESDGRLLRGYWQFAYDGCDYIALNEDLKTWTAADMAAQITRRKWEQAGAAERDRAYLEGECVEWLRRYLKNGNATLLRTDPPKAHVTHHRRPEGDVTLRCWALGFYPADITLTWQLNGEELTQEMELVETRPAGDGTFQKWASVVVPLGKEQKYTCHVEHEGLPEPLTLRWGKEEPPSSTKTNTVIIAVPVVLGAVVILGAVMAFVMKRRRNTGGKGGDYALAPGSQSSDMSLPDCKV

Sequence: EXXXXXXXX [3064.0004]
- Normalized average relative binding affinity (ARB), HLA A*3001 [1]: 0.018
- Normalized average relative binding affinity (ARB), HLA A*3201 [2]: 0.12
- Normalized average relative binding affinity (ARB), HLA A*6802 [3]: 1.0
- Normalized average relative binding affinity (ARB), HLA B*0702 [4]: 0.069
- Normalized average relative binding affinity (ARB), HLA B*0801 [5]: 0.36
- Normalized average relative binding affinity (ARB), HLA B*1501 [6]: 0.16
- Normalized average relative binding affinity (ARB), HLA B*1503 [7]: 0.090
- Normalized average relative binding affinity (ARB), HLA B*2705 [8]: 0.089
- Normalized average relative binding affinity (ARB), HLA B*3501 [9]: 0.085
- Normalized average relative binding affinity (ARB), HLA B*5101 [10]: 0.10
- Normalized average relative binding affinity (ARB), HLA B*5301 [11]: 0.021
- Normalized average relative binding affinity (ARB), HLA B*5401 [12]: 0.040
- Normalized average relative binding affinity (ARB), HLA B*5801 [13]: 0.032
- Normalized average relative binding affinity (ARB), HLA B*5802 [14]: 0.066
- Normalized average relative binding affinity (ARB), H-2 Db [15]: 0.030
- Normalized average relative binding affinity (ARB), H-2 Dd [16]: 0.16
- Normalized average relative binding affinity (ARB), H-2 Kk [17]: 0.77
- Normalized average relative binding affinity (ARB), HLA A*0201 [18]: 0.015

Sequence: YXXXXXXXX [3064.0020]
- Normalized average relative binding affinity (ARB), HLA A*3001 [1]: 0.064
- Normalized average relative binding affinity (ARB), HLA A*3201 [2]: 0.12
- Normalized average relative binding affinity (ARB), HLA A*6802 [3]: 0.24
- Normalized average relative binding affinity (ARB), HLA B*0702 [4]: 0.25
- Normalized average relative binding affinity (ARB), HLA B*0801 [5]: 0.24
- Normalized average relative binding affinity (ARB), HLA B*1501 [6]: 0.33
- Normalized average relative binding affinity (ARB), HLA B*1503 [7]: 0.34
- Normalized average relative binding affinity (ARB), HLA B*2705 [8]: 0.85
- Normalized average relative binding affinity (ARB), HLA B*3501 [9]: 0.19
- Normalized average relative binding affinity (ARB), HLA B*5101 [10]: 1.0
- Normalized average relative binding affinity (ARB), HLA B*5301 [11]: 0.36
- Normalized average relative binding affinity (ARB), HLA B*5401 [12]: 0.12
- Normalized average relative binding affinity (ARB), HLA B*5801 [13]: 0.20
- Normalized average relative binding affinity (ARB), HLA B*5802 [14]: 0.46
- Normalized average relative binding affinity (ARB), H-2 Db [15]: 0.57
- Normalized average relative binding affinity (ARB), H-2 Dd [16]: 0.41
- Normalized average relative binding affinity (ARB), H-2 Kk [17]: 0.63
- Normalized average relative binding affinity (ARB), HLA A*0201 [18]: 0.11

Sequence: PXXXXXXXX [3064.0013]
- Normalized average relative binding affinity (ARB), HLA A*3001 [1]: 0.0059
- Normalized average relative binding affinity (ARB), HLA A*3201 [2]: 0.055
- Normalized average relative binding affinity (ARB), HLA A*6802 [3]: 0.0050
- Normalized average relative binding affinity (ARB), HLA B*0702 [4]: 0.029
- Normalized average relative binding affinity (ARB), HLA B*0801 [5]: 0.012
- Normalized average relative binding affinity (ARB), HLA B*1501 [6]: 0.059
- Normalized average relative binding affinity (ARB), HLA B*1503 [7]: 0.018
- Normalized average relative binding affinity (ARB), HLA B*2705 [8]: 0.022
- Normalized average relative binding affinity (ARB), HLA B*3501 [9]: 0.023
- Normalized average relative binding affinity (ARB), HLA B*5101 [10]: 0.037
- Normalized average relative binding affinity (ARB), HLA B*5301 [11]: 0.0038
- Normalized average relative binding affinity (ARB), HLA B*5401 [12]: 0.0097
- Normalized average relative binding affinity (ARB), HLA B*5801 [13]: 0.030
- Normalized average relative binding affinity (ARB), HLA B*5802 [14]: 0.059
- Normalized average relative binding affinity (ARB), H-2 Db [15]: 0.030
- Normalized average relative binding affinity (ARB), H-2 Dd [16]: 0.095
- Normalized average relative binding affinity (ARB), H-2 Kk [17]: 0.052
- Normalized average relative binding affinity (ARB), HLA A*0201 [18]: 0.0032
